Measurements as given in patent publication US9796984B2, “Protection against herbivores” (priority 2004, dated 2017).
Where two headings read alike, the source gives them in different places. Each block holds one compound with its values, some of them ahead of it.

Legend:
LeARG2 [1] = test: Substrate specificity of tomato arginases (urea detection), recombinant LeARG2; format: biochemical, Lycopersicon esculentum (tomato); details: 250 mM substrate; for Activity: 50 mM CHES pH 9.6, 2 mM MnCl2, 37° C., 30 min, mean and SD of triplet reactions; for activity relative to that obtained with L-arginine: pH 9.6
Bovine arginase = molecular target: T1, Bovine arginase (Bos taurus, UniProt Q2KJ64); test: Substrate specificity (urea detection), bovine arginase; format: biochemical; details: 250 mM substrate; for Activity: 50 mM CHES pH 9.6, 2 mM MnCl2, 37° C., 30 min, mean and SD of triplet reactions; for activity relative to that obtained with L-arginine: pH 9.6
T1 sequence (Q2KJ64 1-322): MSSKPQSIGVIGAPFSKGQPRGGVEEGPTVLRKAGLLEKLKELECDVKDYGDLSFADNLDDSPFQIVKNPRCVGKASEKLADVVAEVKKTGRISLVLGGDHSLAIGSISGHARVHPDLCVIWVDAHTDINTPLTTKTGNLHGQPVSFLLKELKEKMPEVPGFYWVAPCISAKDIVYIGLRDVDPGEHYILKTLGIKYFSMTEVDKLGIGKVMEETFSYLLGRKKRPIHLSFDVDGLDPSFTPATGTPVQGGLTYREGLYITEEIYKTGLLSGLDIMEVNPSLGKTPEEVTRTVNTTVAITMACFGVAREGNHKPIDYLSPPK

LeARG1 [2] = test: Substrate specificity of tomato arginases (urea detection), recombinant LeARG1; format: biochemical, Lycopersicon esculentum (tomato); details: 250 mM substrate; for Activity: 50 mM CHES pH 9.6, 2 mM MnCl2, 37° C., 30 min, mean and SD of triplet reactions; for activity relative to that obtained with L-arginine: pH 9.6
LeARG2 [3] = test: Effect of various compounds on arginase activity, LeARG2; format: biochemical, Lycopersicon esculentum (tomato)
Procedure: (§1) Homogenates were centrifuged at 20,000×g for 10 min at 4° C., and the supernatants were used as the enzyme source. Recombinant LeARG enzyme was prepared as described above. Protein concentrations were determined as described above. Arginase activity was measured with a spectrophotometric assay for detection of urea (Alabadi et al., Plant Physiol. 112:1237-1244 (1996)), with minor modifications. The enzyme solution was activated with 1 mM MnCl2 at 37° C. for 60 min. […] Reactions were carried out at 37° C. for 20 min and stopped by the addition of 500 μl of 15% (v/v) perchloric acid. A 200-μl aliquot was mixed vigorously with 3 ml of acid mixture [9% (v/v) of phosphoric acid and 27% (v/v) of sulfuric acid] and 100 μl of 3% (w/v) α-isonitrosopropiophenone (Sigma) in 95% ethanol. This mixture was heated in a boiling water bath in the dark for 60 min and cooled for 10 min to room temperature. The OD540 was recorded on a Uvikon 933 spectrophotometer (Research Instruments, San Diego, Calif.). Substrate specificity tests were performed as described above with the exception that agmatine and other related compounds were added in place of L-arginine, to a final concentration of 250 mM. Substrates tested were obtained from Sigma. […] Inhibitor studies were conducted with test compounds that were dissolved in water and then diluted into the assay buffer at various concentrations prior to addition of enzyme. For example, 1 μl of a 5-mM L-NOHA stock was added to 489 μl of assay buffer, followed by addition of 10 μl of enzyme solution. The reaction was carried out as described above. L-NOHA was obtained from Cayman Chemical (Ann Arbor, Mich.). [table]

LeARG1 [4] = test: Effect of various compounds on arginase activity, LeARG1; format: biochemical, Lycopersicon esculentum (tomato)
Procedure: as §1

threonine deaminase (TD) [5] = molecular target: T2, threonine deaminase (TD) (Solanum lycopersicum, UniProt P25306); format: biochemical; details: midgut extracts of larvae grown on WT plants; Ile up to mM
T2 construct: from tissue; host or cells: desalted crude extracts of methyl-JA-treated tomato leaves, and of midgut content of M. sexta larvae reared on WT tomato
T2 sequence (P25306 52-418): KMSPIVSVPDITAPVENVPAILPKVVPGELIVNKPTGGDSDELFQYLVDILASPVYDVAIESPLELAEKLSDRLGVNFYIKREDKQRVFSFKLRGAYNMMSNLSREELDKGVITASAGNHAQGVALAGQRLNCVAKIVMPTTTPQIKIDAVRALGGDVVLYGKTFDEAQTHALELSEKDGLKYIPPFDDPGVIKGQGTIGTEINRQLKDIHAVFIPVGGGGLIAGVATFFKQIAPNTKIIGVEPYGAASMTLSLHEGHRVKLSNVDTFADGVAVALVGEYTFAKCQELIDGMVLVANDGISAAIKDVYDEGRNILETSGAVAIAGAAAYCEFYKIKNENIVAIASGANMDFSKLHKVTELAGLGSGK

threonine deaminase (TD) [6] = format: biochemical; details: extracts of methyl-JA-treated tomato leaves
tomato arginase = test: Inhibition of tomato arginase by NOHA; format: biochemical, Lycopersicon esculentum (tomato)
Procedure: as §1, with “Mich.).” for “Mich.). [table]”

LeARG2 [7] = test: RNA blot analysis of LeARG2 transcripts in treated tomato leaves; set-up: species or system Lycopersicon esculentum (tomato); details: in vivo
arginase activity = test: L-arginase activity in tomato leaf protein extracts; format: biochemical, Lycopersicon esculentum (tomato); details: exogenous MeJA vapor
LeARG1 [8] = test: RNA blot analysis of LeARG1 transcripts in treated tomato leaves; set-up: species or system Lycopersicon esculentum (tomato); details: in vivo
[9] = compound 5.0 mM, 25 mM L-arginine, % of control reaction
[10] = compound 0.2 mM, 25 mM L-arginine, % of control reaction

SMILES: N=C(N)NOCC[C@H](N)C(=O)O [Canavanine]
- Activity (LeARG2 [1]): 9 ± 1 μmol/mg protein/h
- activity relative to that obtained with L-arginine (LeARG2 [1]): (0.1%)
- Activity (Bovine arginase): 14 ± 2 μmol/mg protein/h
- activity relative to that obtained with L-arginine (Bovine arginase): (0.2%)
- Activity (LeARG1 [2]): 3 ± 1 μmol/mg protein/h
- activity relative to that obtained with L-arginine (LeARG1 [2]): (<0.1%)

SMILES: O=C(O)CCS [3 -Mercaptopropionate]
- Relative activity (%) (LeARG2 [3]; [9]): 26%
- Relative activity (%) (LeARG1 [4]; [9]): 24%

SMILES: O=C(O)CS [Mercaptoacetate]
- Relative activity (%) (LeARG2 [3]; [9]): 26%
- Relative activity (%) (LeARG1 [4]; [9]): 28%

SMILES: N=C(N)NCCCCN [Agmatine]
- Activity (LeARG2 [1]): 41 ± 6 μmol/mg protein/h
- activity relative to that obtained with L-arginine (LeARG2 [1]): (0.6%)
- Activity (Bovine arginase): 12 ± 2 μmol/mg protein/h
- activity relative to that obtained with L-arginine (Bovine arginase): (0.2%)
- Activity (LeARG1 [2]): 40 ± 3 μmol/mg protein/h
- activity relative to that obtained with L-arginine (LeARG1 [2]): (0.5%)

SMILES: CC[C@H](C)[C@H](N)C(=O)O [Ile, isoleucine]
- TD activity in the presence of Ile (threonine deaminase (TD) [5]): not significantly inhibited
- TD activity in the presence of Ile (threonine deaminase (TD) [6]): strongly inhibited

- Relative activity (%) (LeARG2 [3]; [9]): 88%
- Relative activity (%) (LeARG1 [4]; [9]): 72%
SMILES: NCCC[C@H](N)C(=O)O [L- Ornithine]

- Relative activity (%) (LeARG2 [3]; [10]): 5%
- Relative activity (%) (LeARG1 [4]; [10]): 7%
- Ki lower than the Km for L-arginine (tomato arginase): more than 1000 fold
- mode of inhibition (tomato arginase; plant and non-plant arginases): competitive inhibitor
- Ki (tomato arginase; plant enzymes (LeARG1 and LeARG2)): ~14 µM
SMILES: NC(=NCCC[C@H](N)C(=O)O)NO [L-NOHA, N^G-hydroxy-L-arginine]

- Relative activity (%) (LeARG2 [3]; [9]): 38%
- Relative activity (%) (LeARG1 [4]; [9]): 38%
SMILES: CC(S)C(=O)O (centres unmarked) [2-Mercaptopropionate]

SMILES: OCCS [2-Mercaptoethanol]
- Relative activity (%) (LeARG2 [3]): 80%
- Relative activity (%) (LeARG1 [4]): 81%

SMILES: N=C(N)NCCCC[C@H](N)C(=O)O [Homoarginine]
- Activity (LeARG2 [1]): 916 ± 16 μmol/mg protein/h
- activity relative to that obtained with L-arginine (LeARG2 [1]): (13%)
- Activity (LeARG1 [2]): 1269 ± 2 μmol/mg protein/h
- activity relative to that obtained with L-arginine (LeARG1 [2]): (14%)

SMILES: N=C(N)NCCC[C@H](N)C(=O)O [L-Arginine]
- Activity (LeARG2 [1]): 7016 ± 86 μmol/mg protein/h
- activity relative to that obtained with L-arginine (LeARG2 [1]): (100%)
- Activity (Bovine arginase): 6608 ± 351 μmol/mg protein/h
- activity relative to that obtained with L-arginine (Bovine arginase): (100%)
- Activity (LeARG1 [2]): 8848 ± 177 μmol/mg protein/h
- activity relative to that obtained with L-arginine (LeARG1 [2]): (100%)

- arginase activity in leaves after treatment (arginase activity): increase
SMILES: CC/C=C\CC1C(=O)CCC1CC(=O)OC (centres unmarked) [MeJA]
- LeARG2 expression in leaves (LeARG2 [7]): strongly elicited
- LeARG1 expression in leaves (LeARG1 [8]): low level

SMILES: CC[C@H]1C=C(C(=O)N[C@@]2(C(=O)O)C[C@@H]2CC)[C@H]2CCC(=O)[C@H]2C1 [COR, coronatine]
- LeARG2 expression in leaves (LeARG2 [7]): necessary and sufficient
- LeARG1 expression in leaves (LeARG1 [8]): not induced

SMILES: N=C(N)NCCC[C@@H](N)C(=O)O [D-Arginine]
- Activity (LeARG2 [1]): 250 ± 5 μmol/mg protein/h
- activity relative to that obtained with L-arginine (LeARG2 [1]): (3.6%)
- Activity (Bovine arginase): 32 ± 13 μmol/mg protein/h
- activity relative to that obtained with L-arginine (Bovine arginase): (0.5%)
- Activity (LeARG1 [2]): 195 ± 2 μmol/mg protein/h
- activity relative to that obtained with L-arginine (LeARG1 [2]): (2.2%)
